Reference: PubChem BioAssay (NCI)
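The concentration for 50% growth inhibition is given as GI50. TGI is the concentration that stops growth completely.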

How the values were obtained:
Assay in all cases: NCI anticancer screen, dose series, 384-well format; in the data active means GI50 below about 0.43 µM; inactive means the rest
HOP-62 NSCLC = test system: HOP-62 NSCLC
SF-295 CNS = test system: SF-295 CNS
ACHN renal = test system: ACHN renal
NCI-H226 lung = test system: NCI-H226 lung
CAKI-1 renal = test system: CAKI-1 renal
SN12C renal = test system: SN12C renal
RXF 393 renal = test system: RXF 393 renal
DU-145 prostate = test system: DU-145 prostate
SK-MEL-5 melanoma = test system: SK-MEL-5 melanoma
786-0 renal = test system: 786-0 renal
A549 NSCLC = test system: A549 NSCLC
A498 renal = test system: A498 renal
OVCAR-5 ovarian = test system: OVCAR-5 ovarian
MALME-3M melanoma = test system: MALME-3M melanoma
HCT-116 colon = test system: HCT-116 colon
SK-MEL-2 melanoma = test system: SK-MEL-2 melanoma
SF-268 CNS = test system: SF-268 CNS
NCI-H23 lung = test system: NCI-H23 lung
COLO 205 colon = test system: COLO 205 colon
MDA-MB-231 breast = test system: MDA-MB-231 breast
MDA-MB-435 melanoma = test system: MDA-MB-435 melanoma
BT-549 breast = test system: BT-549 breast
MOLT-4 leukemia = test system: MOLT-4 leukemia
NCI-H322M lung = test system: NCI-H322M lung
SR leukemia = test system: SR leukemia
KM12 colon = test system: KM12 colon
PC-3 prostate = test system: PC-3 prostate
SK-MEL-28 melanoma = test system: SK-MEL-28 melanoma
RPMI-8226 leukemia = test system: RPMI-8226 leukemia

Cn1cc(S(=O)(=O)N2CCC3=Cc4c(cnn4-c4ccc(F)cc4)C[C@]3(C(=O)c3cc(C(F)(F)F)ccn3)C2)cn1
3.82 µM: TGI (SR leukemia)
inactive: GI50 (HOP-62 NSCLC) 5.17 µM | GI50 (SF-295 CNS) 11.5 µM | GI50 (ACHN renal) 31.6 µM | GI50 (NCI-H226 lung) 20.3 µM | GI50 (CAKI-1 renal) 25.6 µM | GI50 (SN12C renal) > 100 µM | GI50 (RXF 393 renal) 1.98 µM | GI50 (DU-145 prostate) > 100 µM | GI50 (SK-MEL-5 melanoma) 7.3 µM | GI50 (786-0 renal) 66 µM | GI50 (A549 NSCLC) 8.76 µM | GI50 (A498 renal) 12.5 µM | GI50 (OVCAR-5 ovarian) > 100 µM | GI50 (MALME-3M melanoma) 19.2 µM | GI50 (HCT-116 colon) 3.29 µM | GI50 (SK-MEL-2 melanoma) 42.8 µM | GI50 (SF-268 CNS) > 100 µM | GI50 (NCI-H23 lung) 1.34 µM | GI50 (COLO 205 colon) > 100 µM | GI50 (MDA-MB-231 breast) 53.3 µM | GI50 (MDA-MB-435 melanoma) > 100 µM | GI50 (BT-549 breast) 6.96 µM | GI50 (MOLT-4 leukemia) 3.09 µM | GI50 (NCI-H322M lung) > 100 µM | GI50 (SR leukemia) 1.87 µM | GI50 (KM12 colon) 46.6 µM | GI50 (PC-3 prostate) 9.49 µM | GI50 (SK-MEL-28 melanoma) > 100 µM | GI50 (RPMI-8226 leukemia) 0.831 µM
71.1 µM: TGI (MALME-3M melanoma)
55.7 µM: TGI (BT-549 breast)
> 100 µM: TGI (HOP-62 NSCLC) | TGI (SF-295 CNS) | TGI (ACHN renal) | TGI (NCI-H226 lung) | TGI (CAKI-1 renal) | TGI (SN12C renal) | TGI (DU-145 prostate) | TGI (SK-MEL-5 melanoma) | TGI (786-0 renal) | TGI (A549 NSCLC) | TGI (A498 renal) | TGI (OVCAR-5 ovarian) | TGI (HCT-116 colon) | TGI (SK-MEL-2 melanoma) | TGI (SF-268 CNS) | TGI (COLO 205 colon) | TGI (MDA-MB-231 breast) | TGI (MDA-MB-435 melanoma) | TGI (NCI-H322M lung) | TGI (KM12 colon) | TGI (PC-3 prostate) | TGI (SK-MEL-28 melanoma)
8.01 µM: TGI (RXF 393 renal)
4.6 µM: TGI (NCI-H23 lung)
9.44 µM: TGI (MOLT-4 leukemia)
